Assay results from patent US20200270588A1, “GLUCOSYL TRANSFERASE POLYPEPTIDES AND METHODS OF USE” (Syngenta Participations AG, priority 2017, published 2020).
Values joined by “and” are separate entries in the source; they are usually repeats but may differ in a detail not shown here. Equal entries are not always repeated.

Legend:
Assay type in all cases: biochemical
[1] = target: T1, SEQ ID NO 20, mutant of Zea mays bx9 glucosyl transferase (Zea mays, UniProt B4G072, A281K/A334K/F21Y/L194V/M279F/S117V); conditions: lower block, concentration printed only in upper block: V 0.300, VII 0.210; IV, VIII, XI, XXI, XX, XVIII, XVI, XV, XIV 0.200; others 1.000 mM
T1 construct: His tag (C); made in house
T1 sequence (B4G072 whole entry F21Y/S117V/L194V/M279F/A281K/A334K): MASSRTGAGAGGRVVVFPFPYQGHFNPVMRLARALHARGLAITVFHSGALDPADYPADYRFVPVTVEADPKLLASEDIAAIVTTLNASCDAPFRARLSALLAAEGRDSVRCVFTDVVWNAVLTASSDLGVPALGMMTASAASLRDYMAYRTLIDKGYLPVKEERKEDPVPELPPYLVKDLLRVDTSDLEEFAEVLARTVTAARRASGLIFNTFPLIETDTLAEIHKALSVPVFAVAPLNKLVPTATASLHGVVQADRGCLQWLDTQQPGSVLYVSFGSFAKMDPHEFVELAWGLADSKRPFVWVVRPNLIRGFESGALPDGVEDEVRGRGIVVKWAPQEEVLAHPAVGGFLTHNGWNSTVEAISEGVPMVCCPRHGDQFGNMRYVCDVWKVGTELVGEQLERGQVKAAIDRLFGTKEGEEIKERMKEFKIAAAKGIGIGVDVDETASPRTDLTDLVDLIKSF

[2] = target: T2, SEQ ID 36, mutant bx-type glucosyl transferase (Zea mays, UniProt Q8W2B7, M283F/S121V/S338K); experiment: LC/MS glucosyl transferase assay (glucoside peak area), purified enzyme; conditions: about 60 min, ~15 pmol enzyme, relative quantification only
T2 construct: 36; 6.03E+06; 6.40E+09; 1.75E+08; His tag; made in house
T2 sequence (Q8W2B7 whole entry S121V/M283F/S338K): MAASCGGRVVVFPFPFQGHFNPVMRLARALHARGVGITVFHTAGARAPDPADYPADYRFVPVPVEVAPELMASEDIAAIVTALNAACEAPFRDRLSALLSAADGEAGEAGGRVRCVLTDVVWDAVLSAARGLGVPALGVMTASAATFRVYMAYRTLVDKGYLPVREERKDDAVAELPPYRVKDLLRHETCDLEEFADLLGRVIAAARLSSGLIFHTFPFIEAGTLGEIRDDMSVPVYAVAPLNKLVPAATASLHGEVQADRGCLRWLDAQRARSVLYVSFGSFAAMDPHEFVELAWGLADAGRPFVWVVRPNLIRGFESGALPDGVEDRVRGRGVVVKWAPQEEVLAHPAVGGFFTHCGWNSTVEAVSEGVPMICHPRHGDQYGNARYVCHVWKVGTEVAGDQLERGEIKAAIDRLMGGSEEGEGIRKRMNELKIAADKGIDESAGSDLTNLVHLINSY
Method: (§1) In an alternative method for assaying the various enzymes, the test glucosyl transferase enzyme is reacted with substrates exactly as above except that the assay is stopped by adding an equal volume of acetonitrile. Alternatively 50 or 100 μl samples from assay reactions are added to 500 μl ethyl acetate to stop the reaction. In this case samples are then vortexed and 400 μl of the ethyl acetate partition removed, dried down, and resuspended in 100 μl 80:20 acetonitrile/water. The formation of product gluco side and/or disappearance of substrate test herbicide is then monitored directly by LC/MS. Samples are analyzed by LC-MS using an Agilent 1290 liquid chromatography system and Thermo Q-Exactive mass spectrometer. The chromatography is achieved on a Waters Acquity C18 BEH (50×2.1 mm) 1.7 μm particle size column, using a 6 minute gradient run of Water (0.2% formic acid) and Acetonitrile. The Q-Exactive is operated in positive ionisation electrospray mode, using Full scan-AIF mode, at 35,000 resolution, between 100-800 m/z. All analytes are identified from the full scan data to within at least 5 ppm accuracy of their predicted pseudo-molecular ion [M+H]^+ m/z value. In order to obtain quantitative data standard curves are run using herbicides and herbicide glucosides synthesized as standards. Where these synthetic glucosides were not available the LC/MS assay could only be used to provide relative data.
(§2) DNA sequences, optimized for E. coli codon usage, were cloned, expressed and the various proteins purified and assayed as described in the foregoing examples. Using the UDP assay (as described in examples 1, 3 and 6) the data obtained from the Zea mays bx8 w/t protein and its variants was noisy due to relatively high background rates in DMSO reagent blanks. The values reported in the table 15 were thus monitored by LC/MS as described in example 1.

[3] = target: T3, SEQ ID 32, mutant bx-type glucosyl transferase (Zea mays, UniProt Q8W2B7, M283F); experiment: as above; conditions: about 60 min, ~15 pmol enzyme, relative quantification only
T3 construct: 32; 9.98E+05; 1.75E+08; 8.33E+06; His tag; made in house
T3 sequence (Q8W2B7 whole entry M283F): as the sequence (Q8W2B7 whole entry S121V/M283F/S338K) above, with V121S, K338S counted along it
Method: as §1, §2

[4] = target: T4, SEQ ID 34, mutant bx-type glucosyl transferase (Zea mays, UniProt Q8W2B7, V367W); experiment: as above; conditions: about 60 min, ~15 pmol enzyme, relative quantification only
T4 construct: 34; 2.45E+05; 2.17E+07; 5.21E+06; His tag; made in house
T4 sequence (Q8W2B7 whole entry V367W): as the sequence (Q8W2B7 whole entry S121V/M283F/S338K) above, with V121S, F283M, K338S, V367W counted along it
Method: as §1, §2

| Structure (SMILES) | Activity [1] | integrated peak area of beta-glucoside product [2] | integrated peak area of beta-glucoside product [3] | integrated peak area of beta-glucoside product [4] |
| --- | --- | --- | --- | --- |
| CN1CC(O)N(c2cc(C(F)(F)F)c(Cl)cn2)C1=O (stereo not drawn) [XI] | 1.046 pmol/sec/pmol enzyme | 6.03E+06 and 6.40E+06 | 9.98E+05 and 1.08E+06 | 2.45E+05 |
| Cc1cnc(N2C(=O)N(C)CC2O)cc1C(F)(F)F (stereo not drawn) [XVIII] | 1.141 pmol/sec/pmol enzyme | – | – | – |
| CON1C(=O)N(c2cc(C(F)(F)F)ccn2)C(O)[C@@H]1C (stereo partly drawn) [Compound VI] | – | 6.40E+09 and 6.87E+09 | 1.75E+08 and 1.89E+08 | 2.17E+07 and 2.00E+07 |
| CN1CC(O)N(c2cc(C(F)(F)F)ccn2)C1=O (stereo not drawn) [Compound V] | 1.889 pmol/sec/pmol enzyme | 1.75E+08 and 1.96E+08 | 8.33E+06 and 6.18E+06 | 5.21E+06 and 4.16E+06 |
